A short description of experiment [1]: Concentration required to inhibit 50% of rate of microtubule disassembly. The format is functional.
Experiment [2] has as its system HCT-116. In words: Concentration required for inhibition of 50% human colon HCT 116 cell line proliferation after 72 hr of incubation. The format is functional, cell-based. The note with it: HCT-116, 72 h.
In experiment [3] the test system is MCF7. Nature of the experiment: Concentration required for inhibition of 50% human breast MCF 7 cell line proliferation after 72 hr of incubation. The format is functional, cell-based. The following applies: MCF7, 72 h.
Experiment [4] can be described thus: Ratio of inhibitory concentration of compound against microtubule disassembly to that of inhibitory concentration of paclitaxel. The format is functional.
Experiment [5] has as its system KB. Nature of the experiment: Concentration required for inhibition of 50% human […] KB cell line proliferation after 72 hr of incubation. The class given is functional, cell-based.
The nature of experiment [6]: Ratio of inhibitory concentration of compound against microtubule disassembly to that of inhibitory concentration of paclitaxel; Inactive. The format is functional.

Each structure is given as a SMILES string. Activity calls are given as the source filed them. The calls are words filed in the database; no cut-off is given here.

For `CC(=O)O[C@H]1C(=O)[C@@]2(C)[C@H]([C@H](OC(=O)c3ccccc3)[C@]3(O)C[C@H](OC(=O)[C@H](O)[C@@H](NC(=O)c4ccccc4)c4ccccc4)C(C)=C1C3(C)C)[C@]1(OC(C)=O)CO[C@@H]1C[C@@H]2O` [PACLITAXEL], the IC50 (usually the concentration needed to halve the response being measured) in experiment [1] amounted to 1000 nM.

On to `CC(=O)O[C@@]12CO[C@@H]1C[C@H](O)[C@@]1(C)C(=O)[C@H](O)C3=C(C)[C@@H](OC(=O)[C@H](O)[C@@H](NC(=O)OC(C)(C)C)c4ccccc4)C[C@@](O)([C@@H](OC(=O)c4ccccc4)[C@H]21)C3(C)C` [DOCETAXEL], for which the IC50 amounted to 2.2 nM in experiment [2], 1 nM in experiment [3] and 0.3 nM in experiment [5]. The Ratio in experiment [4] worked out at 0.5.

Take `CC(=O)O[C@@]12CO[C@@H]1C[C@H](O)[C@@]1(C)C(=O)[C@H](O)C3=C(C)[C@@H]4C[C@@](O)([C@@H](OC(=O)c5cccc(c5)C/C=C\CCCCC(=O)N[C@@H](c5ccccc5)[C@@H](O)C(=O)O4)C12)C3(C)C` (stereo partly drawn): the figures for the IC50 in experiment [2], in experiment [3] and in experiment [5] were 8000 nM, greater than 10000 nM and 200 nM, respectively. Besides, the Ratio in experiment [4] came to 1.4.

In the case of `C=CCCCCC(=O)N[C@@H](c1ccccc1)[C@@H](O)C(=O)O[C@H]1C[C@@]2(O)[C@@H](OC(=O)c3ccccc3CC=C)C3[C@](C)(C(=O)[C@H](O)C(=C1C)C2(C)C)[C@@H](O)C[C@H]1OC[C@@]31OC(C)=O` (stereo partly drawn), the concentration for half-maximal inhibition (IC50) in experiment [2] was determined as 10 nM; in experiment [3], 9 nM; in experiment [5], 3.2 nM. Also, the Ratio in experiment [4] worked out at 1.2.

Consider `CC(=O)O[C@@]12CO[C@@H]1C[C@H](O)[C@@]1(C)C(=O)[C@H](O)C3=C(C)[C@@H]4C[C@@](O)([C@@H](OC(=O)c5cccc(c5)C/C=C/CCCCC(=O)N[C@@H](c5ccccc5)[C@@H](O)C(=O)O4)C12)C3(C)C` (stereo partly drawn), for which the IC50 was found to be 700 nM in experiment [2], 350 nM in experiment [3] and 70 nM in experiment [5]. Also, the Ratio in experiment [4] worked out at 1.

As for `CC(=O)O[C@@]12CO[C@@H]1C[C@H](O)[C@@]1(C)C(=O)[C@H](O)C3=C(C)[C@@H]4C[C@@](O)([C@@H](OC(=O)c5ccccc5C/C=C/CCCCC(=O)N[C@@H](c5ccccc5)[C@@H](O)C(=O)O4)C12)C3(C)C` (stereo partly drawn), the half-maximal inhibitory concentration (IC50) in experiment [2] turned out to be 2400 nM; in experiment [3], 2100 nM; in experiment [5], 700 nM. Besides, the Ratio in experiment [4] was 6.

In experiment [5], `CC(=O)O[C@@]12CO[C@@H]1C[C@H](O)[C@@]1(C)C(=O)[C@H](O)C3=C(C)[C@@H]4C[C@@](O)([C@@H](OC(=O)c5ccc(cc5)C/C=C\CCCCC(=O)N[C@@H](c5ccccc5)[C@@H](O)C(=O)O4)C12)C3(C)C` (stereo partly drawn) gave an IC50 of 280 nM. Further, in experiment [6], the Ratio result was “inactive”.

With `CC(=O)O[C@@]12CO[C@@H]1C[C@H](O)[C@@]1(C)C(=O)[C@H](O)C3=C(C)[C@@H]4C[C@@](O)([C@@H](OC(=O)CCCC/C=C\CCCCC(=O)N[C@@H](c5ccccc5)[C@@H](O)C(=O)O4)C12)C3(C)C` (stereo partly drawn), the half-inhibitory concentration (IC50) in experiment [2] is greater than 10000 nM; in experiment [3], greater than 10000 nM; in experiment [5], 8000 nM. Also, the Ratio in experiment [4] was 7.3.

As to `C=CCCCCC(=O)N[C@@H](c1ccccc1)[C@@H](O)C(=O)O[C@H]1C[C@@]2(O)[C@@H](OC(=O)c3cccc(CC=C)c3)C3[C@](C)(C(=O)[C@H](O)C(=C1C)C2(C)C)[C@@H](O)C[C@H]1OC[C@@]31OC(C)=O` (stereo partly drawn), the Ratio in experiment [4] was determined as 1. Further, the IC50 in experiment [5] is 10 nM.

Turning to `C=CCCCCC(=O)N[C@@H](c1ccccc1)[C@@H](O)C(=O)O[C@H]1C[C@@]2(O)[C@@H](OC(=O)c3ccc(CC=C)cc3)C3[C@](C)(C(=O)[C@H](O)C(=C1C)C2(C)C)[C@@H](O)C[C@H]1OC[C@@]31OC(C)=O` (stereo partly drawn), half-maximal inhibition in experiment [5] (IC50) was put at 40 nM. The Ratio entry in experiment [6] was “inactive”.

For the compound `CC(=O)O[C@@]12CO[C@@H]1C[C@H](O)[C@@]1(C)C(=O)[C@H](O)C3=C(C)[C@@H]4C[C@@](O)([C@@H](OC(=O)c5ccc(cc5)C/C=C/CCCC(=O)N[C@@H](c5ccccc5)[C@@H](O)C(=O)O4)C12)C3(C)C` (stereo partly drawn), it took 1600 nM to reach half-maximal inhibition in experiment [5] (IC50). Besides, the Ratio entry in experiment [6] is “inactive”.

For the origin of these results see ChEMBL document CHEMBL1138846, “Synthesis of C2-C3'N-linked macrocyclic taxoids. Novel docetaxel analogues with high tubulin activity” (J Med Chem, 2004).
